ChEMBL document CHEMBL3797108, “Design, synthesis and in vitro biological evaluation of a small cyclic peptide as inhibitor of vascular endothelial growth factor binding to neuropilin-1” (Bioorg Med Chem Lett, 2016)
Calls of active or inactive are those of the source. The rule behind the calls is not given here. Positions of bridges follow the written chain, without caps; N, C: chain ends. Residues, ends and D or L forms follow the SMILES beside them.

Key:
[1] = molecular target: Neuropilin-1 (Rattus norvegicus) (UniProt Q9QWJ9); experiment: Inhibition of (bt)-VEGF165 binding to purified recombinant rat NRP1/Fc chimera at 3 uM measured after overnight incubation by ELISA method
[2] = molecular target: Neuropilin-1 (Rattus norvegicus) (UniProt Q9QWJ9); experiment: Inhibition of (bt)-VEGF165 binding to purified recombinant rat NRP1/Fc chimera at 0.3 uM measured after overnight incubation by ELISA method
[3] = molecular target: Neuropilin-1 (Rattus norvegicus) (UniProt Q9QWJ9); experiment: Inhibition of (bt)-VEGF165 binding to purified recombinant rat NRP1/Fc chimera at 0.01 uM measured after overnight incubation by ELISA method
[4] = molecular target: Neuropilin-1 (Rattus norvegicus) (UniProt Q9QWJ9); experiment: Inhibition of (bt)-VEGF165 binding to purified recombinant rat NRP1/Fc chimera at 100 uM measured after overnight incubation by ELISA method
[5] = molecular target: Neuropilin-1 (Rattus norvegicus) (UniProt Q9QWJ9); experiment: Inhibition of (bt)-VEGF165 binding to purified recombinant rat NRP1/Fc chimera at 1 uM measured after overnight incubation by ELISA method
HUVEC [6] = experiment: Toxicity against HUVEC assessed as reduction in cell viability at 200 to 1000 uM incubated for 96 hrs by MTS assay; assay type: cell-based; details: human
[7] = molecular target: Neuropilin-1 (Rattus norvegicus) (UniProt Q9QWJ9); experiment: (§1) Inhibition of (bt)-VEGF165 binding to purified recombinant rat NRP1/Fc chimera measured after overnight incubation by ELISA method
Neuropilin-1 = Neuropilin-1 (Rattus norvegicus, UniProt Q9QWJ9); experiment: as §1
[8] = molecular target: Neuropilin-1 (Rattus norvegicus) (UniProt Q9QWJ9); experiment: Inhibition of (bt)-VEGF165 binding to purified recombinant rat NRP1/Fc chimera at 10 uM measured after overnight incubation by ELISA method
MDA-MB-231 [9] = experiment: Toxicity against human MDA-MB-231 assessed as reduction in cell viability at 200 to 1000 uM incubated for 24 hrs by MTS assay; assay type: cell-based; details: mda-mb-231, 24 h
[10] = molecular target: Neuropilin-1 (Rattus norvegicus) (UniProt Q9QWJ9); experiment: Inhibition of (bt)-VEGF165 binding to purified recombinant rat NRP1/Fc chimera at 0.1 uM measured after overnight incubation by ELISA method
HUVEC [11] = experiment: Toxicity against HUVEC assessed as reduction in cell viability at 200 to 1000 uM incubated for 24 hrs by MTS assay; assay type: cell-based; details: human
[12] = molecular target: Neuropilin-1 (Rattus norvegicus) (UniProt Q9QWJ9); experiment: Inhibition of (bt)-VEGF165 binding to purified recombinant rat NRP1/Fc chimera measured after overnight incubation by ELISA method relative to A7R
MDA-MB-231 [13] = experiment: Toxicity against human MDA-MB-231 assessed as reduction in cell viability at 200 to 1000 uM incubated for 96 hrs by MTS assay; assay type: cell-based; details: mda-mb-231, 96 h

`N=C(N)NCCC[C@H](NC(=O)[C@@H]1CCC(=O)NCCCC[C@H](N)C(=O)N2CCC[C@H]2C(=O)N1)C(=O)O` (H-KPER-OH; lactam 1-3) gave an inhibition [1] of 86.7%, an inhibition [2] of 61.7% and an inhibition [3] of 3.1%. For the same molecule, the inhibition [4] was 100%, the inhibition [5] was 76.5% and the Activity (HUVEC [6]) was “Non-toxic”. For the same molecule, the inhibition [7] was “Dose-dependent effect”, the IC50 (Neuropilin-1) was 0.18 µM and the inhibition [8] was 94.7%. The Activity (MDA-MB-231 [9]) was “Non-toxic”, the inhibition [10] was 35.5% and the Activity (HUVEC [11]) was “Non-toxic”. For the same molecule, the Ratio IC50 [12] was < 30 and the Activity (MDA-MB-231 [13]) was “Non-toxic”.

In the case of H-ATWLPPR-OH, the inhibition [1] is reported as 38.1%, the inhibition [2] is reported as 14.6% and the inhibition [3] is reported as “inactive”. For the same molecule, the inhibition [5] was 24.4%, the IC50 (Neuropilin-1) was 5.86 µM and the inhibition [8] was 61%. It also gave an inhibition [10] of 2.9%.
